Source: publication PMC7774954, “Interactomic affinity profiling by holdup assay: Acetylation and distal residues impact the PDZome-binding specificity of PTEN phosphatase” (PLoS ONE, 2020)
*1 amine or outer side, *2 acyl side, *3 side chain or, on linkers, in order; H or OH if unused. Where a SMILES comes first, the peptide text is derived from it. The star is where a group is joined. X1 = O=C(CCCC[C@@H]1SC[C@@H]2NC(=O)N[C@@H]21)NCCCOCCOCCOCCCN*; Suc = O=C(CCC(=O)[*:2])[*:1]

Experiments:
GRIP1-2 = experiment: Holdup assay, GRIP1-2; assay type: binding, human
DLG5-1 = experiment: Holdup assay, DLG5-1; assay type: binding, human
GRIP1-1 = experiment: Holdup assay, GRIP1-1; assay type: binding, human
INADL-5 = experiment: Holdup assay, INADL-5; assay type: binding, human
GRIP2-3 = experiment: Holdup assay, GRIP2-3; assay type: binding, human
DVL1-1 = experiment: Holdup assay, DVL1-1; assay type: binding, human
GIPC2-1 = target: T1, GIPC2-1 (Homo sapiens, UniProt Q8TF65); experiment: Holdup assay, GIPC2-1; assay type: binding
T1 sequence (Q8TF65 1-315): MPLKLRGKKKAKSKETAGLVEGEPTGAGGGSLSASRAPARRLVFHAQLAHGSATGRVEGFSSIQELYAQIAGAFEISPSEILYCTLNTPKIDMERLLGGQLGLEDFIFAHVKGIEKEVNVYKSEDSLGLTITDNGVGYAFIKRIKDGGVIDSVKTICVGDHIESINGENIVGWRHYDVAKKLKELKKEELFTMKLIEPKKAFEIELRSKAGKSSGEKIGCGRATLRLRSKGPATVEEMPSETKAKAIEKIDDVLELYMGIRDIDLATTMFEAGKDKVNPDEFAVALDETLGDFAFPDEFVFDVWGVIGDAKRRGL

LNX2-1 = experiment: Holdup assay, LNX2-1; assay type: binding, human
INADL-9 = experiment: Holdup assay, INADL-9; assay type: binding, human
DFNB31-2 = experiment: Holdup assay, DFNB31-2; assay type: binding, human
IL16-3 = experiment: Holdup assay, IL16-3; assay type: binding, human
INADL-7 = INADL-7 (Homo sapiens, UniProt Q8NI35); experiment: Holdup assay, INADL-7; assay type: binding
Sequence of INADL-7 (Q8NI35 whole entry): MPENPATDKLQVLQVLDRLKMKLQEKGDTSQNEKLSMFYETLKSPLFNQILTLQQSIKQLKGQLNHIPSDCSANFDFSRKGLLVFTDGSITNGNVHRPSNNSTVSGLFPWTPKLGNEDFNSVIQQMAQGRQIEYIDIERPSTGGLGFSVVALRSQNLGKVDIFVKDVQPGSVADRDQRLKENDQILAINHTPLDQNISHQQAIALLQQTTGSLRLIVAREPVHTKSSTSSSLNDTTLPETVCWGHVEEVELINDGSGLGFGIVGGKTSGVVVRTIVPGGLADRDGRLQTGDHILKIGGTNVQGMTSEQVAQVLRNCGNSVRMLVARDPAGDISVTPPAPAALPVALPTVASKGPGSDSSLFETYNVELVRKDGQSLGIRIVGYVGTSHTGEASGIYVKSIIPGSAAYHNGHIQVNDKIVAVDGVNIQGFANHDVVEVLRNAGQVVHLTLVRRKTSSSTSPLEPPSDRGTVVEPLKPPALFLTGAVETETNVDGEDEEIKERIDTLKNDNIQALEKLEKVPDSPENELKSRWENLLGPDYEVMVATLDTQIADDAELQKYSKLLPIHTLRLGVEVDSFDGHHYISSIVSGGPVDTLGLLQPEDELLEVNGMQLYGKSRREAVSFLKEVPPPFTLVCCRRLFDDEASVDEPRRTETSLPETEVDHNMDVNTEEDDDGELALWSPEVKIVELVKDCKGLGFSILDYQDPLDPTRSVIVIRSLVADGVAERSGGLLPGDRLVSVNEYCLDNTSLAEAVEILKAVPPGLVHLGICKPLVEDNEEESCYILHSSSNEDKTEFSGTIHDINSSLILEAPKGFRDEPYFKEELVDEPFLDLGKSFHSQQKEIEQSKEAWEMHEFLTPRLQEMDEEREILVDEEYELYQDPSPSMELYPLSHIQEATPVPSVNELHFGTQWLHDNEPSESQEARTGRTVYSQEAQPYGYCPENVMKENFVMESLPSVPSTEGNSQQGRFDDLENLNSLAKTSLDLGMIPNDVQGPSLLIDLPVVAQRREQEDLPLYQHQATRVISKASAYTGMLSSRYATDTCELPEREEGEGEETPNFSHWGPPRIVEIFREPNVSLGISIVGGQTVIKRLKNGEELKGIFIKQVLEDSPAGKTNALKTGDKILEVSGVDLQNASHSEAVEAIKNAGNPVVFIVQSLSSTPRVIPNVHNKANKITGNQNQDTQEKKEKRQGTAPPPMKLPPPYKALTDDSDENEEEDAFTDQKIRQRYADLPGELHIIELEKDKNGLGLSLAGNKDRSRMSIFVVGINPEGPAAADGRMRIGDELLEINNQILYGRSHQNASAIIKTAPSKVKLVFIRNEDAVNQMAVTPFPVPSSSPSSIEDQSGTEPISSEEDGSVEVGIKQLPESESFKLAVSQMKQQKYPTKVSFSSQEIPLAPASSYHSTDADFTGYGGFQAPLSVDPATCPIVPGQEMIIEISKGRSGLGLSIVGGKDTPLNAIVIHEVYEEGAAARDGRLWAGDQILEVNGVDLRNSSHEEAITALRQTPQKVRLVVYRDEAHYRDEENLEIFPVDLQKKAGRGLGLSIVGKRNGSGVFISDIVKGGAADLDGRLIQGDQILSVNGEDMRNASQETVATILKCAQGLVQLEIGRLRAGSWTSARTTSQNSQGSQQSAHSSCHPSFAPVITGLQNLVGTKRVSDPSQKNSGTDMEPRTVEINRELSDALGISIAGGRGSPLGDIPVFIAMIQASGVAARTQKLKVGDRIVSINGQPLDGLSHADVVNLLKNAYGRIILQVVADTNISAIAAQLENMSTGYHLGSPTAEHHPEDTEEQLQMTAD

MAGI3-3 = experiment: Holdup assay, MAGI3-3; assay type: binding, human
CASK-1 = experiment: Holdup assay, CASK-1; assay type: binding, human
DVL3-1 = experiment: Holdup assay, DVL3-1; assay type: binding, human
NHERF1 PDZ 1 = target: T2, NHERF1 PDZ 1 (Homo sapiens, UniProt O14745); experiment: Holdup assay, NHERF1-1; assay type: binding; conditions: for BI: PDZ domain NHERF1-1
T2 construct: NHERF1-1 as the first PDZ domain of the NHERF1 protein; made in house; host or cells: E. coli
T2 sequence (O14745 14-94 limits assumed): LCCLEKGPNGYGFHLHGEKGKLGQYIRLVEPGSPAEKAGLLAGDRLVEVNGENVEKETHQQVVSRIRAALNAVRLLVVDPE
Experimental: The holdup assay was performed on a Tecan freedom Evo200 robot with 384-well plates in singlicate for the three 11-mer PTEN variants and the 13-mer PTEN peptide as described in [31, 32]. Briefly, prior to interaction assay, 2.5 μL of streptavidin resin was saturated in each well with 20 μL of biotinylated PBM peptides (42 μM) and then washed twice with an excess of free biotin, while the reference resin was incubated only with biotin. Right before the holdup experiment, the PDZ library was spiked with an internal standard of lysozyme. Then, the biotin- or PBM-saturated resin was incubated, each in a distinct well of a 384-well plate, with complete cell lysates diluted so that the concentration of the tag-PDZ present in the crude extract is adjusted at 4 μM. After a sufficient time to reach complex equilibrium (15 min.), a fast and mild filtration step is performed and the tag-PDZ concentrations were measured by capillary electrophoresis instrument (LabChip GXII, PerkinElmer, Massachusets, USA). Standard markers were used to convert migration time into molecular weight on the LabChip software and inappropriate molecular weight markers were corrected or excluded.
For filtered data, the BI was extracted with the following equation (Eq 1) that estimates the depleted fraction after superimposition of the sample and reference electropherograms: BI=Iref−Ilig/Iref (1) where Iref and Ilig are the intensities of the tag-PDZ peaks measured, for each PDZ domain/PBM peptide interaction pair, in the biotin reference and the PBM electropherograms, respectively.
BIs were transformed into dissociation constants (KD) using the following formula: KD=([PDZtot]−BI·[PDZtot])·([PBMtot]−BI·[PDZtot])/BI·[PDZtot] (2) where [PDZtot] and [PBMtot] correspond to the total concentrations of the PDZ domain (usually around 4 μM) and the PBM peptide used during the assay. Since the PBMtot concentration in the resin during the holdup assay parameter may differ from one peptide to another and remains unknown, it is impossible to directly convert BI values into KD constants. We systematically determined the KD constants for a subset of PDZ/PBM pairs by competitive FP. […] For each PBM, the average peptide concentration was calculated after outlier rejection based on the absolute distances from the median as compared to three times the standard deviation (3σ rule), with never more than 2 values rejected.

GRIP2-1 = experiment: Holdup assay, GRIP2-1; assay type: binding, human
GRIP2-7 = experiment: Holdup assay, GRIP2-7; assay type: binding, human
AHNAK2-1 = experiment: Holdup assay, AHNAK2-1; assay type: binding, human
APBA2-1 = experiment: Holdup assay, APBA2-1; assay type: binding, human

| SMILES | BI (GRIP1-2) | LogKD (GRIP1-2) | BI (DLG5-1) | LogKD (DLG5-1) | BI (INADL-5) | LogKD (INADL-5) | BI (GRIP2-3) | LogKD (GRIP2-3) | BI (DVL1-1) | LogKD (DVL1-1) | BI (LNX2-1) | LogKD (LNX2-1) | BI (INADL-9) | LogKD (INADL-9) | BI (DFNB31-2) | LogKD (DFNB31-2) | BI (IL16-3) | LogKD (IL16-3) | BI (INADL-7) | BI (MAGI3-3) | also measured |
| --- | --- | --- | --- | --- | --- | --- | --- | --- | --- | --- | --- | --- | --- | --- | --- | --- | --- | --- | --- | --- | --- |
| CC[C@H](C)[C@H](NC(=O)[C@H](CCC(N)=O)NC(=O)[C@@H](NC(=O)[C@H](Cc1c[nH]cn1)NC(=O)[C@H](CCC(N)=O)NC(=O)[C@H](CC(=O)O)NC(=O)[C@H](CCC(=O)O)NC(=O)[C@H](CC(=O)O)NC(=O)CCC(=O)NCCCOCCOCCOCCCNC(=O)CCCC[C@@H]1SC[C@@H]2NC(=O)N[C@@H]21)[C@@H](C)O)C(=O)N[C@H](C(=O)N[C@@H](CCCNC(=N)N)C(=O)N[C@H](C(=O)O)C(C)C)[C@@H](C)O [PTEN_KR] ({X1-Suc}-DEDQHTQITRV-OH) | -0.06 | 3.655 | -0.041 | 3.655 | -0.046 | 3.655 | 0.027 | 3.655 | -0.056 | 3.655 | 0.072 | 3.655 | 0.068 | 3.655 | -0.046 | 3.655 | -0.005 | 3.655 | 0.176 | -0.043 | BI (GRIP1-1): -0.163; LogKD (GRIP1-1): 3.655; LogKD (GIPC2-1): 3.655; LogKD (MAGI3-3): 3.655; LogKD (CASK-1): 3.655; BI (DVL3-1): 0.037; LogKD (DVL3-1): 3.655; Kd (NHERF1 PDZ 1): 3.45 µM; BI (NHERF1 PDZ 1): 0.862; BI (GRIP2-1): -0.04; LogKD (GRIP2-1): 3.655; BI (GRIP2-7): -0.066; LogKD (GRIP2-7): 3.655; BI (AHNAK2-1): -0.009; LogKD (AHNAK2-1): 3.655 |
| CC[C@H](C)[C@H](NC(=O)[C@H](CCC(N)=O)NC(=O)[C@@H](NC(=O)[C@H](Cc1c[nH]cn1)NC(=O)[C@H](CCC(N)=O)NC(=O)[C@H](CC(=O)O)NC(=O)[C@H](CCC(=O)O)NC(=O)[C@H](CC(=O)O)NC(=O)CCC(=O)NCCCOCCOCCOCCCNC(=O)CCCC[C@@H]1SC[C@@H]2NC(=O)N[C@@H]21)[C@@H](C)O)C(=O)N[C@H](C(=O)N[C@@H](CCCCN)C(=O)N[C@H](C(=O)O)C(C)C)[C@@H](C)O [PTEN_11] | 0.006 | 3.519 | -0.042 | 3.519 | -0.044 | 3.519 | 0.054 | 3.519 | -0.007 | 3.519 | 0.094 | 3.519 | 0.014 | 3.519 | -0.03 | 3.519 | 0.004 | 3.519 | 0.136 | -0.099 | BI (GRIP1-1): -0.021; LogKD (GRIP1-1): 3.519; LogKD (MAGI3-3): 3.519; BI (CASK-1): -0.049; LogKD (CASK-1): 3.519; BI (DVL3-1): 0.012; LogKD (DVL3-1): 3.519; Kd (NHERF1 PDZ 1): 32.8 µM; BI (NHERF1 PDZ 1): 0.494; BI (GRIP2-1): -0.003; LogKD (GRIP2-1): 3.519; BI (GRIP2-7): -0.067; LogKD (GRIP2-7): 3.519; BI (AHNAK2-1): -0.026; LogKD (AHNAK2-1): 3.519 |
| CC[C@H](C)[C@H](NC(=O)[C@H](CCC(N)=O)NC(=O)[C@@H](NC(=O)[C@H](Cc1c[nH]cn1)NC(=O)[C@H](CCC(N)=O)NC(=O)[C@H](CC(=O)O)NC(=O)[C@H](CCC(=O)O)NC(=O)[C@H](CC(=O)O)NC(=O)CCC(=O)NCCCOCCOCCOCCCNC(=O)CCCC[C@@H]1SC[C@@H]2NC(=O)N[C@@H]21)[C@@H](C)O)C(=O)N[C@H](C(=O)N[C@@H](CCCCNC(C)=O)C(=O)N[C@H](C(=O)O)C(C)C)[C@@H](C)O [PTEN_Ac] | -0.02 | 3.605 | -0.005 | 3.605 | -0.076 | 3.605 | 0.055 | 3.605 | -0.016 | 3.605 | 0 | 3.605 | 0.072 | 3.605 | -0.091 | 3.605 | -0.166 | 3.605 | 0.306 | -0.079 | LogKD (GIPC2-1): 3.605; BI (APBA2-1): -0.029; LogKD (APBA2-1): 3.605; Kd (INADL-7): 60.7 µM; LogKD (MAGI3-3): 3.605; BI (CASK-1): -0.102; LogKD (CASK-1): 3.605; BI (DVL3-1): -0.002; LogKD (DVL3-1): 3.605; Kd (NHERF1 PDZ 1): 13.6 µM; BI (NHERF1 PDZ 1): 0.652; BI (GRIP2-1): -0.038; LogKD (GRIP2-1): 3.605; BI (GRIP2-7): -0.07; LogKD (GRIP2-7): 3.605; BI (AHNAK2-1): 0.034; LogKD (AHNAK2-1): 3.605 |
